Test results reported in patent US8557854B2, “Use of a sulfonamide compound for improving the pharmacokinetics of a drug” (Janssen R&D Ireland, priority 2005, dated 2013).
Read-outs that look alike come from different tables or passages of the source. One block for each molecule: values may come before it.

How the values were obtained:
[1] = Bi-directional protease inhibitor transport across Caco-2 monolayers (efflux ratio); format: in vitro ADME; conditions: human, Caco-2, control (no inhibitor), 90 min
Description: (§1) The transport of experimental protease inhibitors was studied in Caco-2 monolayers grown to confluency.

CYP450 3A4 = target: T1, CYP450 3A4 (Homo sapiens, UniProt P08684); test: In vitro inhibition of CYP3A4: testosterone 6β-hydroxylation in human liver microsomes; format: biochemical
T1 construct: mediated by CYP450 3A4 in human liver microsomes; from tissue; host or cells: human liver microsomes

Caco-2 monolayers = test: Bi-directional protease inhibitor transport across Caco-2 monolayers (efflux ratio); format: in vitro ADME; conditions: Caco-2, 100 μM
Description: as §1

[2] = format: in vivo, NZW rabbits
wild-type HIV-1 = conditions: disclosed in WO 02/092595; cited from earlier work
[3] = system: large panel of viruses resistant to currently known PIs; conditions: disclosed in WO 02/092595; cited from earlier work
[4] = Phase I trial: effect of compound A on single dose pharmacokinetics of saquinavir in healthy subjects; conditions: human, in vivo, 1000 mg
Protocol: [drawing 12] was used in a Phase I, open-label, randomized trial in healthy subjects to investigate the steady state pharmacokinetics of compound A, and its effect on the single dose pharmacokinetics of the protease inhibitor saquinavir. Three panels of 8 healthy subjects took a single dose of 1000 mg saquinavir alone, and while taking compound A. The pharmacokinetics of the two intakes of saquinavir was compared. On Day 1 in all panels, all subjects received a single dose of 1000 mg saquinavir. From Day 4 to Day 10, one group of healthy volunteers (Panel 1) received 60 mg compound A b.i.d., one group received 160 mg compound A b.i.d. (Panel 2) and one group took 400 mg compound A b.i.d. (Panel 3). On Day 9, all subjects took a single dose of 1000 mg saquinavir simultaneously with compound A. Full pharmacokinetic profiles of compound A were determined on Day 4, Day 8 and Day 9. Full pharmacokinetic profiles of saquinavir were determined on Day 1 and on Day 9.

T1 sequence (P08684 whole entry): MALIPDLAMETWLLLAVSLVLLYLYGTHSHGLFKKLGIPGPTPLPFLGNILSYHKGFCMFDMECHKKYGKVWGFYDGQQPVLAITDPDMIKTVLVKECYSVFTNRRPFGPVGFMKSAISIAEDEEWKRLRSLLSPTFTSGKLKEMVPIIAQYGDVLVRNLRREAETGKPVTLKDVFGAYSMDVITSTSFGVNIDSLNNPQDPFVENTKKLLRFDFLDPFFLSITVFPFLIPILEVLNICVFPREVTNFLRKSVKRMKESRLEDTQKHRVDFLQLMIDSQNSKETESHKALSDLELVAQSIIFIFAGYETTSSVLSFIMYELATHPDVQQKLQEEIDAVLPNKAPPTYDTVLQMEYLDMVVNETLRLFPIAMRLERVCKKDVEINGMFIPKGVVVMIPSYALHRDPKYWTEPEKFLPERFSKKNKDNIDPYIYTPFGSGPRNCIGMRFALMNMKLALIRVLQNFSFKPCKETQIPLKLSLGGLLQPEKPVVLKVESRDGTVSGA

effect on plasma level of darunavir in rabbits [2]: increase
Structure (SMILES): CC(C)CN(C[C@H](O)[C@@H](Cc1ccccc1)NC(=O)OCc1cncs1)S(=O)(=O)c1ccc2nc(N)oc2c1 [Compound E, 5-thiazolylmethyl[(1R,2S)-3[[(2-amino-6-benzoxazolyl)sulfonyl](2-methylpropyl)amino]-2-hydroxy-1-(phenylmethyl)propyl]carbamate]

tmax of saquinavir [4]: 5.0 (2.0-6.0) h | AUC(0-t) ([4]; AUClast of saquinavir): 515 ± 306 ng·h/mL | Cmax ([4]; Cmax of saquinavir): 117 ± 77.7 ng/mL | Tmax ([4]; tmax of saquinavir): 4.5 h
Structure (SMILES): CC(C)(C)NC(=O)[C@@H]1C[C@@H]2CCCC[C@@H]2CN1C[C@@H](O)[C@H](Cc1ccccc1)NC(=O)[C@H](CC(N)=O)NC(=O)c1ccc2ccccc2n1 [saquinavir]

Second part, the molecule before the results:

Structure (SMILES): CCN1CCC[C@@H]1CNc1nc2ccc(S(=O)(=O)N(CC(C)C)C[C@@H](O)[C@H](Cc3ccccc3)NC(=O)O[C@H]3CO[C@H]4OCC[C@H]43)cc2s1 [Compound C]
efflux ratio at 90 min, 30 μM ([1]; compound C 30 μM, read-out: efflux ratio (ER) of compound C): 119

Structure (SMILES): CC(C)CN(C[C@@H](O)[C@H](Cc1ccccc1)NC(=O)OCc1cncs1)S(=O)(=O)c1ccc2nc(N)oc2c1 [Compound A, 5-thiazolylmethyl[(1S,2R)-3[[(2-amino-6-benzoxazolyl)sulfonyl]-(2-methylpropyl)amino]-2-hydroxy-1-(phenylmethyl)propyl]carbamate]
IC50 (CYP450 3A4; testosterone 6β-hydroxylation, read-out: IC50 of CYP3A4 mediated metabolism): 0.025 to 0.1 µM | Ki (CYP450 3A4; testosterone metabolism, non-competitive inhibition model, read-out: inhibition constant Ki of CYP3A4 inhibition): 0.065 µM | effect on transport polarity of protease inhibitors (Pgp efflux) (Caco-2 monolayers): significantly reduce the transport polarity | effect on plasma level of darunavir in rabbits [2]: increase | in vitro activity against wild-type HIV-1 (wild-type HIV-1): has in vitro activity | activity against a large panel of viruses resistant to currently known PIs [3]: has also activity

Structure (SMILES): CC(C)CN(C[C@@H](O)[C@H](Cc1ccccc1)NC(=O)O[C@H]1CO[C@H]2OCC[C@H]21)S(=O)(=O)c1ccc2nc(NCCN3CCCC3)sc2c1 [Compound B]
efflux ratio at 90 min, 30 μM ([1]; compound B 30 μM, read-out: efflux ratio (ER) of compound B): 171
